Publication PMC7297381, “Potent, specific MEPicides for treatment of zoonotic staphylococci” (PLoS Pathogens, 2020)
In brackets after ≈: the same amount, converted by molar mass. Read-outs that look alike come from different tables or passages of the source.

Key:
[1] = system: MEP pathway; assay: Targeted LC-MS/MS profiling of MEP pathway intermediates; details: FSM at 10x IC50, 2 h, vs untreated
Description: (§2) MEP pathway metabolites were compared between untreated (UNT) S. schleiferi (A) and S. pseudintermedius (B) and bacteria treated with FSM at 10x the respective IC50 values. After 2 h treatment, bacterial cells were harvested and the cell pellets analyzed by LC-MS/MS. […] P-values were determined using a Student’s t-test.
(§3) Overnight cultures of Staphylococcus spp. were diluted 1:200 in LB media and grown at 37°C until reaching mid-logarithmic phase. Cultures were then treated for 2 h with FSM at 10x their IC50 while shaking at 37°C. For normalization, the OD600 was determined after 2 h of treatment with the DXR inhibitors. Cells were pelleted by centrifugation for 5 min at 3000 x g at 4°C. The supernatants were removed and cells were washed twice with 1 x PBS (Gibco). The supernatants were removed and the pellets stored at -80°C until analysis. MEP intermediates were extracted from the samples using glass beads (212–300 u) and 600 μL chilled H2O: chloroform: methanol (3:5:12 v/v) spiked with PIPES (piperazine-N,N′-bis(2-ethanesulfonic acid) as internal standard. The cells were disrupted with the TissueLyser II instrument (Qiagen) using a microcentrifuge tube adaptor set pre-chilled for 2 min at 20 Hz. The samples were then centrifuged at 16,000 x g at 4°C for 10 min, the supernatants collected, and pellet extraction repeated once more. The supernatants were pooled and 300 μL chloroform and 450 μL of chilled water were added to the supernatants. The tubes were vortexed and centrifuged. The upper layer was transferred to a 2 mL tube PVDF filter (ThermoFisher, F2520-5) and centrifuged for 5 min at 4,000 x g at 4°C. The samples were transferred to new tubes and dried using a speed-vac. […]
(§4) For LC separation, Luna-NH2 column (3 μm, 150 x 2 mm, Phenomenex) was used flowing at 0.4 mL/min. […] The metabolites were detected using MRM transitions that were previously optimized using standards. […] For quantification, an external standard curve was prepared using a series of standard samples containing different concentrations of metabolites and a fixed concentration of the internal standard. […]

[2] = system: S. schleiferi; assay: Growth inhibition assay of Staphylococcus species (OD600, 20 h); details: read-out: S. schleiferi IC50
Description: (§5) Overnight cultures were diluted 1:200 in LB media and grown at 37°C until the mid-logarithmic phase (OD600 = 0.5–0.8). Cultures were diluted in a 96-well plate to 1 x 10^5 in 150 μL LB media and treated with inhibitors at concentrations ranging from 2 nM to 100 μM. Bacteria were grown at 37°C for 20 h with cyclic shaking at 700 rpm in a FLUOstar Omega microplate reader (BMG Labtech). Growth was assessed over 20 h by measuring the OD600 at 20 min increments. The half-maximal inhibitory concentration (IC50) values were determined during logarithmic growth using GraphPad Prism software. All experiments were performed at least in triplicate and data reported represent the mean ± SEM.

[3] = system: S. pseudintermedius; assay: as above; details: read-out: S. pseudintermedius IC50
Description: as §5

[4] = system: S. aureus; assay: as above; details: for IC50: Staphylococcus aureus, read-out: S. aureus IC50
Description: as §5

[5] = system: Burkholderia thailandensis; assay: microbe, parasite or virus in culture; type: cell-based; details: read-out: Burkholderia thailandensis IC50
[6] = target: S. schleiferi DXR enzyme (Staphylococcus schleiferi, UniProt A0ABF7SXB4); assay: S. schleiferi DXR enzyme activity and inhibition (NADPH oxidation at 340 nm); type: biochemical; details: for inhibition of purified recombinant S. schleiferi DXR in vitro: prodrug, uncleaved
Description: (§1) . The sequence was confirmed by Sanger sequencing and the plasmid was transformed into E. coli BL21(DE3) pLysS (Life Technologies). Gene expression was induced for 2 h with 1 mM isopropyl-β-D-thiogalactoside (IPTG) and cells were harvested by centrifugation at 4274 x g for 10 min at 4°C. The cell pellet was lysed by sonication in lysis buffer containing 25 mM Tris HCl (pH 7.5), 100 mM NaCl, 20 mM imidazole, 10% glycerol, 1 mM MgCl2, 1 mM dithiothreitol (DTT), 1 mg/mL lysozyme, 75 U benzonase and 1 Complete Mini EDTA-free protease inhibitor tablet (Roche Applied Science). The hexahistidine-tagged DXR protein was affinity purified from soluble lysate via nickel agarose beads (Gold Biotechnology). Bound protein was eluted in 300 mM imidazole, 25 mM Tris HCl (pH 7.5), 1 mM MgCl2 and 100 mM NaCl. Purified protein was dialyzed in buffer containing 10% glycerol without imidazole prior to analysis. The enzyme was frozen in liquid nitrogen and stored permanently at -80°C.
Oxidation of NADPH to NADP^+ as a result of substrate turnover was monitored at 340 nm in a POLARstar Omega microplate reader (BMG Labtech)[73]. […] Reactions were initiated by the addition of DOXP after 15 min incubation of the reaction mixture without DOXP at 37°C. Absorption at 340 nm was measured continuously for up to 45 min. For Km [DOXP] determination, DOXP concentrations between 0 and 2 mM were tested at 0.5 mM NADPH. The linear range of enzyme activity was determined by varying the DXR concentration at 1 mM DOXP and 1 mM NADPH. IC50 assays were performed using the standard reaction conditions with the respective amount of DXR inhibitor added to obtain the given final concentrations. Data points from at least three independent replicates were analyzed by nonlinear regression using GraphPad Prism software. Slopes of changing absorbance values were converted to (μM DOXP)(mg enzyme)^-1 s ^-1 using a NADPH standard curve (data not shown). For the determination of the inhibitory constant Ki [FSM] of DXR, enzyme activity over a range of DOXP substrate concentrations between 0 and 2 mM was measured for FSM between 0 mM to 4 mM. Data points from at least three independent replicates were analyzed as described above.

[7] = system: S. schleiferi; assay: Minimum bactericidal (MBC) assay, CFU after 24 h; details: 1 x and 10 x IC50, 24 h, CFU/mL
Description: (§6) Overnight cultures were diluted 1:200 in LB media and grown at 37°C until reaching mid-logarithmic phase of growth. […] Cultures were serially diluted in 1 X Dulbecco’s Phosphate Buffered Saline (PBS; Gibco) and plated on LB agar. Colonies were enumerated after overnight growth at 37°C. Values reflect the mean and standard deviations of at least three independent experiments.
(§7) Growth in CFU/mL of S. schleiferi and S. pseudintermedius after 24 h treatment is plotted against the respective treatment. Cultures were treated at 1 x IC50 concentration and/or 10x IC50 concentration of the inhibitors. Shown are the mean values + SD from at least three independent experiments.

[8] = system: MEP pathway; assay: Targeted LC-MS/MS profiling of MEP pathway intermediates; details: FSM at 10x IC50, 2 h, vs untreated; remark: listed apart in the source
Description: as §2, §3, §4

[9] = system: S. schleiferi; assay: MIC by microtiter broth dilution, wild-type and FSM-resistant strains; details: for sensitivity of FSM^R glpT mutant S. schleiferi strains (MIC fold change vs WT): strains 3408, 4494, 7376, 8400
Description: (§8) Minimum Inhibitory Concentration (MIC) assays were conducted by microtiter broth dilution in clear 96-well plates[78]. MEPicides were serially diluted in duplicate at concentrations ranging from 1.5 mM– 19.5 nM in 75 μL of LB broth. Bacteria cultured without drug were used as a positive control for growth. The plates were inoculated with 75 μL bacteria diluted to 1 x 10^5 CFU/mL in LB. Plates were incubated for 18–20 h while shaking at 200 RPM at 37°C. The plates were then visually inspected, and the MIC value was defined as the lowest concentration of MEPicide that prevented visual growth.

[10] = system: Shigella sonnei; assay: microbe, parasite or virus in culture; type: cell-based; details: mean ± SD
[11] = system: S. pseudintermedius; assay: Minimum bactericidal (MBC) assay, CFU after 24 h; details: 1 x and 10 x IC50, 24 h, CFU/mL
Description: as §6, §7

[12] = system: Escherichia coli; assay: microbe, parasite or virus in culture; type: cell-based; details: for IC50: Escherichia coli, BW25113, mean ± SD
[13] = system: Serratia marcescens; assay: Growth inhibition assay for Gram-negative bacteria; type: cell-based; details: strain 137.01, mean ± SD
[14] = system: Klebsiella pneumoniae; assay: Growth inhibition assay for Gram-negative bacteria; type: cell-based; details: for IC50: Klebsiella pneumoniae, ATCC43816, ATCC 43816, mean ± SD
[15] = system: S. pseudintermedius; assay: MIC by microtiter broth dilution, wild-type and FSM-resistant strains
Description: as §8

[16] = system: Salmonella typhimurium; assay: Growth inhibition assay for Gram-negative bacteria; type: cell-based; details: Salmonella enterica, strain 04-018-0254, mean ± SD
[17] = system: HepG2 cells; set-up: method as in PMID 28827774, PMID 30192536; details: previous work ref [42], [53]; read-out: IC50 against HepG2 cells; cited from earlier work
[18] = substrate: CC(=O)[C@@H](O)[C@H](O)COP(=O)(O)O; assay: S. schleiferi DXR enzyme activity and inhibition (NADPH oxidation at 340 nm); type: biochemical; details: other: 0.5 mM NADPH; pH 7.5; 37.0 °C
Description: as §1, with “Bound protein was eluted in 300 mM imidazole, 25 mM Tris HCl (pH 7.5), 1 mM MgCl2 and 100 mM NaCl. Purified protein was dialyzed in buffer containing 10% glycerol without imidazole prior to analysis. The enzyme was frozen in liquid nitrogen and stored permanently at -80°C.” left out
Oxidation of NADPH to NADP^+ as a result of substrate turnover was monitored at 340 nm in a POLARstar Omega microplate reader (BMG Labtech)[73]. […] Absorption at 340 nm was measured continuously for up to 45 min. […] The linear range of enzyme activity was determined by varying the DXR concentration at 1 mM DOXP and 1 mM NADPH. […] Data points from at least three independent replicates were analyzed by nonlinear regression using GraphPad Prism software. Slopes of changing absorbance values were converted to (μM DOXP)(mg enzyme)^-1 s ^-1 using a NADPH standard curve (data not shown). […] Data points from at least three independent replicates were analyzed as described above.

[19] = purified recombinant enzyme, mean ± SEM, read-out: S. schleiferi DXR enzyme IC50

## O=CN(O)CCCP(=O)(O)O [FSM, fosmidomycin]
[1]
  increase of intracellular DOXP level: 23.8 fold
  reduction of intracellular CDP-ME level: 5.5 fold
  reduction of intracellular MEcPP level: 4.5 fold
[2]
  IC50: 0.78 ± 0.13 µM
[3]
  IC50: 0.31 ± 0.04 µM
[4]
  inhibition of S. aureus growth: neither FSM nor FR-900098 inhibit S. aureus growth
  IC50: > 100 µM
[5]
  IC50: > 100 µM
[6]; competitive with respect to the DOXP substrate
  Ki: 0.29 ± 0.022 µM
[6]; [19]
  IC50: 0.67 ± 0.06 µM
[6]; with respect to the DOXP substrate
  mode of DXR inhibition: competitive
[7]
  mechanism-of-action on viable cells: bacteriostatic
[8]
  increase of intracellular DOXP level: 34.8 fold
  reduction of intracellular CDP-ME level: 2.6 fold
  reduction of intracellular MEcPP level: 2.4 fold
[9]; read-out: FSM MIC, Parental S. schleiferi
  MIC: 19.8 µM (≈ 3.63 µg/mL)
[9]; read-out: FSM MIC, strain SSCH1903, GlpT G99X
  MIC: 719 µM (≈ 132 µg/mL)
[9]; read-out: FSM MIC, strain SSCH3408, GlpT A267E
  MIC: 500 µM (≈ 91.6 µg/mL)
[9]; read-out: FSM MIC, strain SSCH3612, GlpT G99V
  MIC: 688 µM (≈ 126 µg/mL)
[9]; read-out: FSM MIC, strain SSCH3624 (second line), GlpT A309S
  MIC: 562 µM (≈ 103 µg/mL)
[9]; read-out: FSM MIC, strain SSCH3624, GlpT G99V
  MIC: 688 µM (≈ 126 µg/mL)
[9]; read-out: FSM MIC, strain SSCH3717, no GlpT change
  MIC: > 1500 µM
[9]; read-out: FSM MIC, strain SSCH4455, GlpT G298X
  MIC: > 1500 µM
[9]; read-out: FSM MIC, strain SSCH4494, GlpT G99X
  MIC: 750 µM (≈ 137 µg/mL)
[9]; read-out: FSM MIC, strain SSCH7376, GlpT W148C
  MIC: 438 µM (≈ 80.1 µg/mL)
[9]; read-out: FSM MIC, strain SSCH8400, GlpT W161L
  MIC: 469 µM (≈ 85.8 µg/mL)
[9]; read-out: FSM MIC, strain SSCH8586, GlpT G99E
  MIC: > 1500 µM
[9]; read-out: FSM MIC, strain SSCH8774, GlpT Q379P
  MIC: > 1500 µM
[10]
  IC50: 1.16 ± 0.69 µM
[11]
  mechanism-of-action on viable cells: bacteriostatic
[12]
  IC50: 0.29 ± 0.08 µM
[13]
  IC50: 0.39 ± 0.02 µM
[14]
  IC50: 0.81 ± 0.56 µM
[15]; read-out: FSM MIC, Parental S. pseudintermedius
  MIC: 25.9 µM (≈ 4.74 µg/mL)
[15]; read-out: FSM MIC, strain SPSE0643, GlpT W301X
  MIC: 1120 µM (≈ 206 µg/mL)
[15]; read-out: FSM MIC, strain SPSE1933, GlpT G99E
  MIC: 875 µM (≈ 160 µg/mL)
[15]; read-out: FSM MIC, strain SPSE2052, GlpT D88Y
  MIC: 1120 µM (≈ 206 µg/mL)
[15]; read-out: FSM MIC, strain SPSE2227, GlpT G135D
  MIC: 1120 µM (≈ 206 µg/mL)
[15]; read-out: FSM MIC, strain SPSE2648, GlpT G99E
  MIC: 1000 µM (≈ 183 µg/mL)
[15]; read-out: FSM MIC, strain SPSE5869, GlpT G135V
  MIC: 938 µM (≈ 172 µg/mL)
[15]; read-out: FSM MIC, strain SPSE6794, GlpT G99E
  MIC: 1250 µM (≈ 229 µg/mL)
[15]; read-out: FSM MIC, strain SPSE6909, GlpT G404D
  MIC: 688 µM (≈ 126 µg/mL)
[15]; read-out: FSM MIC, strain SPSE7104, GlpT G99E
  MIC: 1250 µM (≈ 229 µg/mL)
[15]; read-out: FSM MIC, strain SPSE7724, GlpT G400C
  MIC: 1120 µM (≈ 206 µg/mL)
[15]; read-out: FSM MIC, strain SPSE8628, no GlpT change
  MIC: 1060 µM (≈ 195 µg/mL)
[15]; read-out: FSM MIC, strain SPSE9765, no GlpT change
  MIC: 1250 µM (≈ 229 µg/mL)
[16]
  IC50: 0.23 ± 0.03 µM

## CC(=O)N(O)C/C=C/P(=O)(OCOC(=O)C(C)(C)C)OCOC(=O)C(C)(C)C [Compound 2]
[2]
  IC50: 0.1 ± 0.01 µM
[3]
  IC50: 0.26 ± 0.03 µM
[4]
  IC50: > 100 µM
[5]
  IC50: > 100 µM
[6]
  inhibition of purified recombinant S. schleiferi DXR in vitro: poorly inhibit
[6]; [19]
  IC50: > 100 µM
[9]
  sensitivity of FSM^R glpT mutant S. schleiferi strains (MIC fold change vs WT): remain sensitive
[10]
  IC50: > 100 µM
[17]
  IC50: > 100 µM
[12]
  inhibition of growth of E. coli: does not inhibit growth
  IC50: > 1000 µM
[13]
  IC50: > 100 µM
[14]
  inhibition of growth of Klebsiella pneumoniae: does not inhibit growth
  IC50: > 100 µM
[16]
  IC50: > 100 µM

## CC(=O)N(O)C/C=C/P(=O)(O)O [Compound 1]
[2]
  IC50: 55.5 ± 2.41 µM
[3]
  IC50: 54.5 ± 1.14 µM
[4]
  IC50: > 100 µM
[6]
  IC50: 3.31 ± 1.02 µM

## CC(C)(C)C(=O)OCOP(=O)(/C=C/CN(O)C=O)OCOC(=O)C(C)(C)C [Compound 4]
[2]
  IC50: 0.03 µM
[3]
  IC50: 0.21 ± 0.04 µM
[4]
  IC50: > 90 µM
[6]
  inhibition of purified recombinant S. schleiferi DXR in vitro: poorly inhibit
[6]; [19]
  IC50: 12.6 ± 1.98 µM
[9]
  sensitivity of FSM^R glpT mutant S. schleiferi strains (MIC fold change vs WT): remain sensitive
[17]
  IC50: > 50 µM

## O=CN(O)C/C=C/P(=O)(O)O [Compound 3]
[2]
  IC50: 4.17 ± 0.47 µM
[3]
  IC50: 4.31 ± 0.51 µM
[4]
  IC50: > 100 µM
[6]
  IC50: 0.41 ± 0.11 µM
[9]
  sensitivity of FSM^R glpT mutant S. schleiferi strains (MIC fold change vs WT): cross-resistant
[17]
  IC50: > 50 µM

## CC(=O)N(O)CCCP(=O)(O)O [FR-900098]
[2]
  IC50: 41.1 ± 6.65 µM
[3]
  IC50: 34.1 ± 6.54 µM
[4]
  inhibition of S. aureus growth: neither FSM nor FR-900098 inhibit S. aureus growth
  IC50: > 100 µM
[6]
  IC50: 1 ± 0.18 µM
[7]
  mechanism-of-action on viable cells: bacteriostatic
[11]
  mechanism-of-action on viable cells: bacteriostatic

B1: S. schleiferi DXR enzyme (Staphylococcus schleiferi) (protein)
chain: MKNIAILGASGSIGQQAIDVIARHPESFNLISFTVGKNIEFAIEVIEKFKPEIVSVQDEADVERLKPYHSNIVSGRQGLIDVSTYEKNDLVLNALLGSVGLEPTMKAIEAGKNIALANKETLVVAGKLVMTHAKRYGVDILPVDSEHAAIFQCLNGEDMHKIKNVTITASGGSFRELTREQLEHVTVGDALNHPNWSMGNKITIDSATMMNKGFEVIEAKWLFDLKIDQIKTILHKESIIHSLVEFVDTSVMAQLGTPDMRMPIQYAFTYPERIEHRAPSLDLVQVAQLHFQEMDLDRYRCLKFAYDALRIGGSMPVVLNAVNEVAVAKFLNHEITFLEIEHMIEREMSAHEVIPDPSLEEILEIDHYYKTKSYEV
[18]
  Km: 520 ± 80 µM
